Columns and labels:
Assay type in all cases: cell-based
human keratinocytes [1] = test: 3H choline incorporation into phospholipids of keratinocytes
Description: (§1) Human keratinocytes, isolated from neonatal foreskin by trypsin treatment were grown in Dulbecco Modification Eagle (DME) Hams F12 (3:1) medium/5% fetal calf serum in the presence of mitomycin C treated 3T3 mouse fibroblasts for establishing dividing keratinocyte colonies. Cells were grown under the above condition until their second passage and kept frozen for future use. Frozen second passage keratinocytes were thawed and plated into the above medium and grown for five days. On day 5, when the cells were 70-80% confluent, they were trypsinized and plated in the serum-free medium for the various experiments.
Choline acts as an essential nutrient for the cellular phospholipid biosynthesis of keratinocytes. Choline present in the medium is used up by the cells for phospholipid biosynthesis. If TCC provides choline for the cells it will complete with the choline in the medium for incorporation into cellular phospholipids. When cells are incubated with ^3 H-labelled choline, its incorporation into phospholipids will be decreased by the presence of unlabelled choline or TCC in the medium.
[…] The wells were washed, total lipids were extracted using Bleigh Dyer method as described above and the total counts in the chloroform phase was determined. To ascertain that the counts are present only in the phospholipid fraction, the amount of ^3 H choline incorporated into the different lipid fractions were quantitated by running TLC of the fractions in the above solvent system, and the amount of radioactivity in the phospholipid fraction (origin) was quantitated using BioScan plate reader. The cpm of ^3 H choline was plotted against the amount of cold choline or TCC added in the medium to assess the competition between choline supplied from TCC with ^3 H choline.
The amount of ^3 H choline incorporated into cellular phospholipids was determined and expressed as % of controls.

human keratinocytes [2] = test: DNA synthesis in keratinocytes (3H-thymidine incorporation, keratinocyte proliferation)
Description: The incorporation of ^3 H-thymidine by cultured keratinocytes was used as an assay of keratinocyte proliferation. Thymidine is one of four deoxynucleosides which are the monomeric units of DNA, the universal library of genetic information in the animal kingdom. Prior to cell division of a somatic cell such as a keratinocyte, the complete genome of the cell undergoing cell division is replicated. This involves large scale DNA synthesis by the cell and enables both daughter cells to receive identical copies of the genetic material. When ^3 H-thymidine is included in the culture media of keratinocytes which are synthesizing DNA in preparation for cell division then the labelled nucleoside is incorporated into the newly synthesized DNA. The extent of incorporation of ^3 H-thymidine into a population of cells is proportional to the rate of DNA synthesis by this population of cells and therefore an indication of their cellular proliferation.
1. Normal human keratinocytes isolated from neonatal foreskins by trypsin treatment were grown in DME medium/5% fetal calf serum in the presence of mitomycin C treated 3T3 mouse fibroblasts for establishing dividing keratinocyte colonies. Keratinocytes were grown under the above condition until their third passage.
2. For the experiments, third passage keratinocytes were plated into a serum-free keratinocyte growth medium (KGM; obtained from Clonetics, San Diego, Calif.) containing 0.09 mM calcium. 20,000 to 30,000 cells were plated into each well of 24 well cell culture plates and grown for 5 days, until the cells reach about 80% confluence.
3. Medium was changed to fresh medium and the various test materials were added to the medium from an ethanolic stock solution. The final ethanol concentration in the cultures was kept below 0.2%. Control cultures received no tested material but were dosed with 0.2% ethanol. Each compound or combination was tested in three separate wells. In four hours, 1 uCi of ^3 H-thymidine (Amersham Corp., Sp activity 40 Ci/mmol) was added to the 1 ml medium in each well. The cells were incubated overnight and 24 hours later the amount of ^3 H-thymidine associated with the cellular DNA of keratinocytes was assessed as described below.
4. The medium was aspirated, and the wells washed with 1 ml phosphate-buffered saline. The DNA and proteins of the cells in the plate were then precipitated by adding 1 ml of ice-cold 10% trichloroacetic acid (TCA). The plates were left on ice for 30 minutes to complete the precipitation process. TCA was then aspirated and each well was then washed four times with 5% TCA. The plates were then dried on a filter pad and the cells in the wells were dissolved in 0.5 ml of 0.1N sodium hydroxide. The sodium hydroxide was then neutralized using 0.1N hydrochloric acid and the solution (1 ml total volume) was then transferred to a scintillation vial. 50 μl samples from each vial were used for protein assay using BCA protein assay reagent obtained from Pierce Chemical Company. 8 ml of a scintillation fluid (Ecolume) was added to the rest of the solution in the vial, and the vials were counted in a scintillation counter to determine the amount of radioactivity in each vial. The DNA synthesis rate was then calculated as cpm ^3 H thymidine incorporated into total cellular DNA/microgram of cell protein for each individual well.

human keratinocytes [3] = test: Cornified envelope (CE) formation, marker of terminal differentiation of keratinocytes
Description: as §1
During the process of terminal differentiation in the epidermis, a 15 nm thick layer of protein, known as the cornified envelope (CE)is formed on the inner surface of the cell periphery. The CE is composed of numerous distinct proteins which have been cross-linked together by the formation of N ^ε -(-γ-glutamyl) lysine isodipeptide bonds catalyzed by the action of at least two different transglutaminases expressed in the epidermis. Transglutaminase (TG-1) is expressed in abundance in the differentiated layers of the epidermis, especially the granular layer, but is absent in the undifferentiated basal epidermis. Thus, TG-1 is a useful marker of epidermal keratinocyte differentiation with high TG-1 levels indicating a more differentiated state. An ELISA based TG-1 assay, using a TG-1 antibody, was used to assess the state of differentiation of the cultured keratinocytes in the examples that follow.
Proper skin conditioning require enhanced proliferation and differentiation of epidermal keratinocytes. The different citrate esters were tested on their effect on cornified envelope (CE) formation, a marker of terminal differentiation of keratinocytes. Citrate esters were tested at 1 mM levels in medium containing 0.15 mM Ca. Levels are expressed as % of control ±SD. The CE formation for the control was 54.48 ±31.8 cpm/μg cell protein.

[4] = Homo sapiens, Keratinocyte, 48 h, read-out: 3H choline incorporated into cellular phospholipids
[5] = Homo sapiens, Keratinocyte, 24 h, read-out: Rate of DNA synthesis

**Q.** For `O=C(O)CC(O)(CC(=O)O)C(=O)O` [Citric acid, citric acid], which “choline incorporation into phospholipid fraction, result in words” value (human keratinocytes [1]; 48 hours) is on record?
**A.** no significant effect on choline incorporation into phospholipid fraction

**Q.** What about the activity at 10 µM (human keratinocytes [1]; [4]) of the same compound?
**A.** 91.4 ± 12.7%

**Q.** And the activity at 100 µM (human keratinocytes [1]; [4])?
**A.** 77.5 ± 19.5%

**Q.** What about the activity at 1000 µM (human keratinocytes [1]; [4]) of the same compound?
**A.** 74.1 ± 28.8%

**Q.** What about the activity at 0.1 µM (human keratinocytes [2]; [5]) of the same compound?
**A.** 88.4 ± 15.5%

**Q.** What about the activity at 1 µM (human keratinocytes [2]; [5]) of the same compound?
**A.** 74.5 ± 32.2%

**Q.** What about the activity at 10 µM (human keratinocytes [2]; [5]) of the same compound?
**A.** 89.9 ± 20.3%

**Q.** And the activity at 100 µM (human keratinocytes [2]; [5])?
**A.** 88.7 ± 5.1%

**Q.** What about the activity at 1000 µM (human keratinocytes [2]; [5]) of the same compound?
**A.** 63.9 ± 11.8%

**Q.** What about the activity at 10000 µM (human keratinocytes [2]; [5]) of the same compound?
**A.** 4.25 ± 2.2%

**Q.** What about the “keratinocyte proliferation, result in words” value (human keratinocytes [2]; summary in Example 2) of the same compound?
**A.** inhibit both proliferation and differentiation of keratinocytes

**Q.** And the “cornified envelope formation / keratinocyte differentiation, result in words” value (human keratinocytes [3]; 1 mM, 0.15 mM Ca)?
**A.** inhibited cornified envelope formation significantly

**Q.** What about the activity at 1000 µM (human keratinocytes [3]; Homo sapiens, Keratinocyte, read-out: CE Levels) of the same compound?
**A.** 13.7 ± 1.1%

**Q.** And the “keratinocyte differentiation, result in words” value (human keratinocytes [3]; summary of Example 2)?
**A.** inhibit both proliferation and differentiation of keratinocytes

Source: patent US5571518A, “Cosmetic compositions containing tricholine citrate” (priority 1995, dated 1996)
